According to publication PMC11116330, “The evolutionary novelty of insect defensins: from bacterial killing to toxin neutralization” (Cellular and Molecular Life Sciences: CMLS, 2024):
Read-outs that look alike come from different tables or passages of the source. Positions of bridges follow the written chain, without caps; N, C: chain ends. Residues, ends and D or L forms follow the SMILES beside them.

Key:
[1] = tested on: S15 DNA (15-bp fragment derived from the MRE motif CES11D1); experiment: Electrophoretic mobility shift assay (EMSA); format: binding; settings: 5 µM annealed double strand S15, DvirARP 2, 4 or 8 µM, room temperature 20 min, 6% native polyacrylamide, ethidium bromide staining
[2] = tested on: Methicillin-sensitive Staphylococcus aureus (MSSA) CGMCC 1.89; experiment: Inhibition-zone antimicrobial assay; format: cell-based; settings: 1 nmol/well
[3] = Variable temperature CD spectroscopy; format: physicochemical; settings: 10 to 65 °C, oxidized product, 5 mM PB pH 7.0
Experimental: For CD analysis, a peptide sample was dissolved in 5 mM phosphate buffer (PB, pH7.0) with a concentration of 0.1–0.2 mg/mL. CD spectra were measured on the Chirascan Plus spectropolarimeter v.4.4.0 (Applied Photophysics Ltd, UK) by using a quartz cell of 1.0 mm thickness. The wavelengths used ranged from 190 to 260 nm. Data were collected at 1 nm intervals with a scan rate of 0.5 s per point and expressed as delta epsilon (cm^-1M^-1). Delta epsilon was calculated as [θ×(MRW×0.1)/(C×L)/3298], where θ is the ellipticity (in millidegrees), C is the concentration (in mg/mL), L is the path length (in cm), and MRW is the mean residue weight (in Da).
Fig. 4 Experiment data-guided structural model of DvirARP built by comparative modelling. (A) Comparison of CD spectra of reduced and oxidized DvirARP in 5 mM PB buffer (pH7.0). Signature bands for the presence of cation–π and 3_10-helix are denoted by arrows. (B) Thermal denaturation curves of the oxidized product at indicated temperatures. (C) Sequence comparison between DvirARP and the template MSL2 CXC (residues 542–559). Identical and conserved residues are shadowed in yellow and grey, respectively. Residues involved in cation–π interactions are underlined twice. The predicted secondary structure element and disulfide bridges are extracted from the experiment-based computational model. […] (E) The cation–π interaction on the DvirARP structure. […]

[4] = tested on: Bacillus megaterium CGMCC 1.0459
[5] = tested on: Micrococcus luteus CGMCC 1.0290

In the case of `CC[C@H](C)[C@H](NC(=O)[C@H](C)NC(=O)[C@H](CC(N)=O)NC(=O)[C@H](CCCNC(=N)N)NC(=O)[C@H](C)NC(=O)[C@H](CCCNC(=N)N)NC(=O)[C@H](CCCNC(=N)N)NC(=O)[C@H](Cc1ccc(O)cc1)NC(=O)[C@@H]1CSSC[C@H](NC(=O)[C@@H](NC(=O)[C@H](C)N)C(C)C)C(=O)N[C@@H](CCCNC(=N)N)C(=O)N1)C(=O)N[C@H](C(=O)N[C@H]1CSSC[C@@H](C(=O)N[C@@H](CCCNC(=N)N)C(=O)O)NC(=O)[C@H](Cc2ccc(O)cc2)NC1=O)C(C)C` [DvirARP] (H-AVCRCYRRARNAIVCYCR-OH; disulfide 3-5, 15-17; N-terminus and C-terminus assumed), the “Binding of S15 DNA fragment (EMSA)” value [1] is reported as “not able to bind”, the “Antibacterial activity in inhibition zone assay against S. aureus CGMCC 1.89” value ([2]; peptide dissolved in 50% haemolymph serum from DvWT female adults) is reported as “no detectable antibacterial activity” and the “Antibacterial activity in inhibition zone assay against S. aureus CGMCC 1.89” value ([2]; peptide dissolved in 50% haemolymph serum from DvdelARP female adults) is reported as “no detectable antibacterial activity”. For the same compound, the “Antibacterial activity in inhibition zone assay against S. aureus CGMCC 1.89” value ([2]; peptide dissolved in insect saline (pH 7.2)) was “no detectable antibacterial activity”, the “CD signature band around 230 nm (cation–π interaction) with temperature” value [3] was “decreased with the temperature increase” and the “CD signature band at 206 nm (3_10-helix) with temperature” value [3] was “overall retained”. For the same compound, the “Lethal concentration CL” value ([4]; Bacillus CGMCC 1.0459, pH 7) was 17.68 µM, the “Lethal concentration CL” value ([4]; inhibition-zone assay, 0.8% agar, 2 µL peptide per 2-mm well, peptide in 5 mM PB pH 7.0, overnight, Bacillus megaterium CGMCC 1.0459) was greater than 10 µM and the “Lethal concentration CL” value ([5]; CGMCC 1.0290, pH 7) was 10.77 µM. The “Lethal concentration CL” value ([5]; inhibition-zone assay, 0.8% agar, 2 µL peptide per 2-mm well, peptide in 5 mM PB pH 7.0, overnight, Micrococcus luteus CGMCC 1.0290) was greater than 10 µM.
